Results from ChEMBL document CHEMBL3885881, “DrugMatrix”.

Organism: Rattus norvegicus
Assay: DrugMatrix - Regimen: Daily Repeat
Type: toxicity, organism-based, Sprague-Dawley
Set-up: regimen Daily Repeat, gender Male, age 6-8 weeks
Settings: in vivo, po, route oral GAVAGE, vehicle 100 % WATER; for ABSOLUTE BASOPHIL / ABSOLUTE EOSINOPHIL / ABSOLUTE LYMPHOCYTE / ABSOLUTE MONOCYTE / ABSOLUTE SEGMENTED NEUTROPHIL / BASOPHIL / EOSINOPHIL / ERYTHROCYTE COUNT / HEMATOCRIT / HEMOGLOBIN / LEUKOCYTE COUNT / LYMPHOCYTE / MEAN CORPUSCULAR HEMOGLOBIN / MEAN CORPUSCULAR HEMOGLOBIN CONCENTRATION / MEAN CORPUSCULAR VOLUME / MONOCYTE / NEUTROPHIL / NUCLEATED RED BLOOD CELLS / PLATELET COUNT: tissue Blood; for ALANINE AMINOTRANSFERASE / ALKALINE PHOSPHATASE / ASPARTATE AMINOTRANSFERASE / BLOOD UREA NITROGEN / CARBON DIOXIDE / CHLORIDE / CHOLESTEROL / CREATINE PHOSPHOKINASE / CREATININE / GLUCOSE / LACTATE DEHYDROGENASE / LIPASE / PHOSPHORUS / POTASSIUM / SODIUM / TOTAL BILIRUBIN / TOTAL PROTEIN / URIC ACID: tissue Plasma
[1] = 0 mg/kg, 72 h, dose level Control, time 3 day
[2] = 0 mg/kg, 120 h, dose level Control, time 5 day
[3] = 46 mg/kg, 72 h, dose level Low, time 3 day
[4] = 46 mg/kg, 120 h, dose level Low, time 5 day

O=C1NC(=O)C(c2ccccc2)(c2ccccc2)N1 [PHENYTOIN]
ABSOLUTE BASOPHIL [1]: 0 CELLS/uL
ABSOLUTE EOSINOPHIL [1]: 123.17 CELLS/uL
ABSOLUTE LYMPHOCYTE [1]: 12677.83 CELLS/uL
ABSOLUTE MONOCYTE [1]: 66.17 CELLS/uL
ABSOLUTE SEGMENTED NEUTROPHIL [1]: 1149.5 CELLS/uL
BASOPHIL [1]: 0%
EOSINOPHIL [1]: 0.83%
ERYTHROCYTE COUNT [1]: 5.26 x10E6/uL
HEMATOCRIT [1]: 33.07%
HEMOGLOBIN [1]: 13.43 G/DL
LEUKOCYTE COUNT [1]: 14.02 x10E3/uL
LYMPHOCYTE [1]: 90.17%
MEAN CORPUSCULAR HEMOGLOBIN [1]: 25.62 pg
MEAN CORPUSCULAR HEMOGLOBIN CONCENTRATION [1]: 40.65 G/DL
MEAN CORPUSCULAR VOLUME [1]: 63 fL
MONOCYTE [1]: 0.5%
NEUTROPHIL [1]: 8.5%
NUCLEATED RED BLOOD CELLS [1]: 0.17 /100WBC
PLATELET COUNT [1]: 1142.83 x10E3/uL
ALANINE AMINOTRANSFERASE [1]: 45.17 u/L
ALKALINE PHOSPHATASE [1]: 340.17 u/L
ASPARTATE AMINOTRANSFERASE [1]: 77.33 u/L
BLOOD UREA NITROGEN [1]: 14.67 mg/dL
CARBON DIOXIDE [1]: 28.67 mmol/L
CHLORIDE [1]: 101.17 MEQ/L
CHOLESTEROL [1]: 77.67 mg/dL
CREATINE PHOSPHOKINASE [1]: 263.67 u/L
CREATININE [1]: 0.15 mg/dL
GLUCOSE [1]: 169.33 mg/dL
LACTATE DEHYDROGENASE [1]: 230 u/L
LIPASE [1]: 9.67 u/L
PHOSPHORUS [1]: 11.8 mg/dL
POTASSIUM [1]: 5.91 MEQ/L
SODIUM [1]: 142.88 MEQ/L
TOTAL BILIRUBIN [1]: 0.22 mg/dL
TOTAL PROTEIN [1]: 5.7 G/DL
URIC ACID [1]: 1.35 mg/dL
ABSOLUTE BASOPHIL [2]: 0 CELLS/uL
ABSOLUTE EOSINOPHIL [2]: 125 CELLS/uL
ABSOLUTE LYMPHOCYTE [2]: 13809 CELLS/uL
ABSOLUTE MONOCYTE [2]: 351 CELLS/uL
ABSOLUTE SEGMENTED NEUTROPHIL [2]: 1581.67 CELLS/uL
BASOPHIL [2]: 0%
EOSINOPHIL [2]: 0.67%
ERYTHROCYTE COUNT [2]: 5.53 x10E6/uL
HEMATOCRIT [2]: 34.83%
HEMOGLOBIN [2]: 13.9 G/DL
LEUKOCYTE COUNT [2]: 15.87 x10E3/uL
LYMPHOCYTE [2]: 87.5%
MEAN CORPUSCULAR HEMOGLOBIN [2]: 25.25 pg
MEAN CORPUSCULAR HEMOGLOBIN CONCENTRATION [2]: 40.08 G/DL
MEAN CORPUSCULAR VOLUME [2]: 63.05 fL
MONOCYTE [2]: 2.17%
NEUTROPHIL [2]: 9.67%
NUCLEATED RED BLOOD CELLS [2]: 0 /100WBC
PLATELET COUNT [2]: 1044 x10E3/uL
ALANINE AMINOTRANSFERASE [2]: 50.67 u/L
ALKALINE PHOSPHATASE [2]: 395 u/L
ASPARTATE AMINOTRANSFERASE [2]: 86 u/L
BLOOD UREA NITROGEN [2]: 15.33 mg/dL
CARBON DIOXIDE [2]: 29.33 mmol/L
CHLORIDE [2]: 101.5 MEQ/L
CHOLESTEROL [2]: 71.33 mg/dL
CREATINE PHOSPHOKINASE [2]: 323.17 u/L
CREATININE [2]: 0.18 mg/dL
GLUCOSE [2]: 145.67 mg/dL
LACTATE DEHYDROGENASE [2]: 389.5 u/L
LIPASE [2]: 9.83 u/L
PHOSPHORUS [2]: 11.35 mg/dL
POTASSIUM [2]: 6.39 MEQ/L
SODIUM [2]: 142.77 MEQ/L
TOTAL BILIRUBIN [2]: 0.18 mg/dL
TOTAL PROTEIN [2]: 6.1 G/DL
URIC ACID [2]: 1.52 mg/dL
ABSOLUTE BASOPHIL [3]: 0 CELLS/uL
ABSOLUTE EOSINOPHIL [3]: 0 CELLS/uL
ABSOLUTE LYMPHOCYTE [3]: 15884.67 CELLS/uL
ABSOLUTE MONOCYTE [3]: 0 CELLS/uL
ABSOLUTE SEGMENTED NEUTROPHIL [3]: 1248.67 CELLS/uL
BASOPHIL [3]: 0%
EOSINOPHIL [3]: 0%
ERYTHROCYTE COUNT [3]: 5.58 x10E6/uL
HEMATOCRIT [3]: 35.6%
HEMOGLOBIN [3]: 14.27 G/DL
LEUKOCYTE COUNT [3]: 17.13 x10E3/uL
LYMPHOCYTE [3]: 93%
MEAN CORPUSCULAR HEMOGLOBIN [3]: 25.63 pg
MEAN CORPUSCULAR HEMOGLOBIN CONCENTRATION [3]: 40.1 G/DL
MEAN CORPUSCULAR VOLUME [3]: 63.9 fL
MONOCYTE [3]: 0%
NEUTROPHIL [3]: 7%
NUCLEATED RED BLOOD CELLS [3]: 0 /100WBC
PLATELET COUNT [3]: 1336.33 x10E3/uL
ALANINE AMINOTRANSFERASE [3]: 48.67 u/L
ALKALINE PHOSPHATASE [3]: 344.67 u/L
ASPARTATE AMINOTRANSFERASE [3]: 69.33 u/L
BLOOD UREA NITROGEN [3]: 13.67 mg/dL
CARBON DIOXIDE [3]: 33.67 mmol/L
CHLORIDE [3]: 99.67 MEQ/L
CHOLESTEROL [3]: 68.67 mg/dL
CREATINE PHOSPHOKINASE [3]: 151.67 u/L
CREATININE [3]: 0.12 mg/dL
GLUCOSE [3]: 146 mg/dL
LACTATE DEHYDROGENASE [3]: 81.33 u/L
LIPASE [3]: 10 u/L
PHOSPHORUS [3]: 11.37 mg/dL
POTASSIUM [3]: 6.96 MEQ/L
SODIUM [3]: 142.8 MEQ/L
TOTAL BILIRUBIN [3]: 0.2 mg/dL
TOTAL PROTEIN [3]: 5.7 G/DL
URIC ACID [3]: 1.53 mg/dL
ABSOLUTE BASOPHIL [4]: 0 CELLS/uL
ABSOLUTE EOSINOPHIL [4]: 40.67 CELLS/uL
ABSOLUTE LYMPHOCYTE [4]: 11032 CELLS/uL
ABSOLUTE MONOCYTE [4]: 233.67 CELLS/uL
ABSOLUTE SEGMENTED NEUTROPHIL [4]: 793.67 CELLS/uL
BASOPHIL [4]: 0%
EOSINOPHIL [4]: 0.33%
ERYTHROCYTE COUNT [4]: 5.47 x10E6/uL
HEMATOCRIT [4]: 33.93%
HEMOGLOBIN [4]: 13.63 G/DL
LEUKOCYTE COUNT [4]: 12.1 x10E3/uL
LYMPHOCYTE [4]: 91.33%
MEAN CORPUSCULAR HEMOGLOBIN [4]: 24.93 pg
MEAN CORPUSCULAR HEMOGLOBIN CONCENTRATION [4]: 40.17 G/DL
MEAN CORPUSCULAR VOLUME [4]: 62 fL
MONOCYTE [4]: 2%
NEUTROPHIL [4]: 6.33%
NUCLEATED RED BLOOD CELLS [4]: 0 /100WBC
PLATELET COUNT [4]: 1416.33 x10E3/uL
ALANINE AMINOTRANSFERASE [4]: 54 u/L
ALKALINE PHOSPHATASE [4]: 319.67 u/L
ASPARTATE AMINOTRANSFERASE [4]: 264.33 u/L
BLOOD UREA NITROGEN [4]: 17 mg/dL
CARBON DIOXIDE [4]: 24.67 mmol/L
CHLORIDE [4]: 104.33 MEQ/L
CHOLESTEROL [4]: 61.67 mg/dL
CREATINE PHOSPHOKINASE [4]: 2442.67 u/L
CREATININE [4]: 0.27 mg/dL
GLUCOSE [4]: 152 mg/dL
LACTATE DEHYDROGENASE [4]: 827.67 u/L
LIPASE [4]: 10.67 u/L
PHOSPHORUS [4]: 13.43 mg/dL
POTASSIUM [4]: 7.35 MEQ/L
SODIUM [4]: 144.9 MEQ/L
TOTAL BILIRUBIN [4]: 0.2 mg/dL
TOTAL PROTEIN [4]: 6 G/DL
URIC ACID [4]: 3.3 mg/dL
